In assay [1] the target is PTGER2 (EP2) (Homo sapiens (Human), UniProt P43116). Briefly: hEP2 b-arrestin assay (PathHunter HEK 293 PTGER2 b-arrestin cells). The format is cell-based. An excerpt: (§1) The assay is using the PathHunter™ HEK 293 PTGER2 and PTGER4 b-arrestin cell lines from DiscoverX. The system is based on the Enzyme Fragment Complementation Technology. Two complementing fragments of the b-galactosidase enzyme are expressed within stably transfected cells. The larger portion of b-gal, termed EA for Enzyme Acceptor, is fused to the C-terminus of b-arrestin 2. The smaller fragment, termed ProLink™ tag, is fused to PTGER2 (EP2) or PTRGER4 (EP4) at the C-terminus. Upon activation, b-arrestin is recruited which forces the interaction of ProLink and EA, allowing complementation of the two fragments of b-gal and the formation of a functional enzyme which is capable of hydrolysing the substrate and generating a chemiluminescent signal.
Chain of PTGER2 (EP2) (P43116 whole entry, the tested form may be a part): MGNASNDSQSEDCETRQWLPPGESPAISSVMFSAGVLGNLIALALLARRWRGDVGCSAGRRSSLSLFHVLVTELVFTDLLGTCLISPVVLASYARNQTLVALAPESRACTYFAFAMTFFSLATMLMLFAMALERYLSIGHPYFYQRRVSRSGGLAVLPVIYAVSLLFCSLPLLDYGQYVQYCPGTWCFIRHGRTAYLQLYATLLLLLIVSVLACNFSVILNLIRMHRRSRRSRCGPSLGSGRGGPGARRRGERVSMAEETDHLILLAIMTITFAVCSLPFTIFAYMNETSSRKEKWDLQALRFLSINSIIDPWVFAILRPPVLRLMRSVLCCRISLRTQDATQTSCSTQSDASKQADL
(§2) 5000 cells per well of a 384 well plate (white with white bottom Greiner 781080) are seeded in 20 ul per well of GM. Plate is incubated at 37° C., 5% C02 for 24 hours.
Plate is pre-incubated 15 minutes at 37° C. Then five microliters of PGE2 (final conc. 5 μM) are transferred into the assay plate. Plate is incubated 120 minutes at 37° C.
Twelve μl of reagent are transferred to the assay plate and incubate for 1 hour at room temperature in the dark. Luminescence counts are read on a BMG Fluostar Optima reader according to manufacturer's instructions. For each compound concentration calculate of the percentage of activity compared to DMSO control value as average±STDEV. (each concentration is measured in duplicate)

Assay [2] deals with PTRGER4 (EP4) (Homo sapiens (Human), UniProt P35408). Briefly: hEP4 b-arrestin assay (PathHunter HEK 293 PTGER4 b-arrestin cells). The format is cell-based.
Chain of PTRGER4 (EP4) (P35408 whole entry, looked up): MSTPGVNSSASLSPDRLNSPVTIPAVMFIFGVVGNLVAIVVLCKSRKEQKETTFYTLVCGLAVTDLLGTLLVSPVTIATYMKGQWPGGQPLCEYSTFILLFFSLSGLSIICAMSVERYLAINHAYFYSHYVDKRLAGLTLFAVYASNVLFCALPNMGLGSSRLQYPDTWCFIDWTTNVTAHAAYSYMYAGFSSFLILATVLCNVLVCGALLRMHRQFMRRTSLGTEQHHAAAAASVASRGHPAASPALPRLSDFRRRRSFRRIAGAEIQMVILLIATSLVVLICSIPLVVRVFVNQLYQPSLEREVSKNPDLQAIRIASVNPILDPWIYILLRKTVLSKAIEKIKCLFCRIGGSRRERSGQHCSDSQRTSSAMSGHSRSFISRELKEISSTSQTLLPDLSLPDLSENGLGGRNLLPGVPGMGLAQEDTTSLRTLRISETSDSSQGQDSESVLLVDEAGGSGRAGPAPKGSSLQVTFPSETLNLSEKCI
Description: as §1, §2
Plate is pre-incubated 15 minutes at 37° C. Then five microliters of PGE2 (final conc. 20 nM) are transferred into the assay plate. Plate is incubated 120 minutes at 37° C.
Twelve μl of reagent are transferred to the assay plate and incubate for 1 hour at room temperature in the dark. Luminescence counts are read on a BMG Fluostar Optima reader according to manufacturer's instructions. For each compound concentration calculate of the percentage of activity compared to DMSO control value as average±STDEV.

Where [3] appears, read: hEP2 b-arrestin assay (values without asterisk).
The mark [4] stands for this setting: hEP4 b-arrestin assay (values without asterisk).
[5] abbreviates: antagonistic activity on hEP2, mean where measured multiple times.
[6] abbreviates: antagonistic activity on hEP4, mean where measured multiple times.

By IC50 is commonly meant the concentration needed to halve the response being measured.

“4-{6-[2-(2-Cyano-7-fluoro-4-methoxy-indol-1-yl)-ethylamino]-pyrimidin-4-yl}-phthalic acid 2-ethyl ester [Example 965]”: the 50% inhibitory concentration (IC50) is 53 nM in assay [1] (setting [3]) and 43 nM in assay [2] (setting [4]).
Taken in the same sequence, the figures for “5-{6-[2-(6-Fluoro-4-methoxy-2-methyl-indol-1-yl)-ethylamino]-pyrimidin-4-yl}-thiophen-3-ol [Example 801]” were 20 nM and 139 nM.
Taken in the same sequence, the figures for `CCOc1cc(-c2cc(NCC(C)n3c(C)cc4c(OC)ccc(F)c43)ncn2)sc1C(=O)O` (racemic) [Example 796, rac-3-Ethoxy-5-{6-[2-(7-fluoro-4-methoxy-2-methyl-indol-1-yl)-propylamino]-pyrimidin-4-yl}-thiophene-2-carboxylic acid] were 48 nM and 131 nM.
Taken in the same sequence, the figures for `CCOc1cc(-c2cc(NC(C)Cn3c(C)cc4c(OC)ccc(F)c43)ncn2)sc1C(=O)O` (racemic) [Example 797, rac-3-Ethoxy-5-{6-[2-(7-fluoro-4-methoxy-2-methyl-indol-1-yl)-1-methyl-ethylamino]-pyrimidin-4-yl}-thiophene-2-carboxylic acid] were 33 nM and 64 nM.
For `CCOc1cc(-c2cc(NCCn3c(C)cc4c(OC)ccc(F)c43)ncn2)ccc1NC(C)C(=O)O` (racemic) [Example 839, rac-2-(2-Ethoxy-4-{6-[2-(7-fluoro-4-methoxy-2-methyl-indol-1-yl)-ethylamino]-pyrimidin-4-yl}-phenylamino)-propionic acid], the IC50 in assay [1] (setting [3]) worked out at 3 nM; in assay [2] (setting [4]), 44 nM.
In the case of `CCOc1cc(-c2cc(NCCn3c(C)cc4c(OC)ccc(F)c43)ncn2)ccc1OC(C)C(=O)O` (racemic) [Example 843, rac-2-(2-Ethoxy-4-{6-[2-(7-fluoro-4-methoxy-2-methyl-indol-1-yl)-ethylamino]-pyrimidin-4-yl}-phenoxy)-propionic acid], the IC50 in assay [1] (setting [3]) was found to be 11 nM; in assay [2] (setting [4]), 111 nM.
Taken in the same sequence, the figures for `COc1ccc(F)c2c1cc(C#N)n2CCNc1cc(-c2ccc(C(O)CO)cc2)ncn1` (racemic) [Example 862, rac-1-(2-{6-[4-(1,2-Dihydroxy-ethyl)-phenyl]-pyrimidin-4-ylamino}-ethyl)-7-fluoro-4-methoxy-1H-indole-2-carbonitrile] were 90 nM and 194 nM.
As to `COc1cccc2c1cc(C)n2CCNc1cc(-c2ccc3c(c2)C(C)NC3=O)ncn1` (racemic) [compound 86], the half-maximal inhibitory concentration (IC50) in assay [1] (setting [5]) stood at 12 nM; in assay [2] (setting [6]), 873 nM.
Taken in the same sequence, the figures for `Cc1ccc(F)c2c1cc(C)n2CCNc1cc(-c2ccc3c(c2)C(C)NC3=O)ncn1` (racemic) [compound 96] were 17 nM and 572 nM.
Taken in the same sequence, the figures for `CCC1NC(=O)c2ccc(-c3cc(NCCn4c(C)cc5c(OC)cccc54)ncn3)cc21` (racemic) [compound 196] were 12 nM and 224 nM.
Taken in the same sequence, the figures for `COc1ccc(F)c2c1cc(C)n2CCNc1cc(-c2ccc3c(c2)C(C)NC3=O)ncn1` (racemic) [compound 203] were 14 nM and 324 nM.
On to `CCC1NC(=O)c2ccc(-c3cc(NCCn4c(C)cc5c(C)ccc(F)c54)ncn3)cc21` (racemic) [compound 207], for which the concentration for half-maximal inhibition (IC50) in assay [1] (setting [5]) is 19 nM; in assay [2] (setting [6]), 645 nM.
Taken in the same sequence, the figures for `CCCC1NC(=O)c2ccc(-c3cc(NCCn4c(C)cc5c(OC)cccc54)ncn3)cc21` (racemic) [compound 314] were 15 nM and 303 nM.
In the case of `CCC1NC(=O)c2ccc(-c3cc(NCCn4c(C)cc5c(OC)ccc(F)c54)ncn3)cc21` (racemic) [compound 319], the IC50 in assay [1] (setting [5]) turned out to be 10 nM; in assay [2] (setting [6]), 296 nM.
Taken in the same sequence, the figures for `CCCC1NC(=O)c2ccc(-c3cc(NCCn4c(C)cc5c(C)ccc(F)c54)ncn3)cc21` (racemic) [compound 322] were 55 nM and 295 nM.
Consider `CCC(C)c1cc(-c2cc(NCCn3c(C)cc4c(C)ccc(F)c43)ncn2)ccc1C(=O)O` (racemic) [compound 337], for which the half-inhibitory concentration (IC50) in assay [1] (setting [5]) was 89 nM; in assay [2] (setting [6]), 308 nM.
As to `COc1ccc(F)c2c1cc(C)n2CCNc1cc(-c2ccc(N)cc2)ncn1` [Example 4, [6-(4-amino-phenyl)-pyrimidin-4-yl]-[2-(7-fluoro-4-methoxy-2-methyl-indol-1-yl)-ethyl]-amine], the values for the IC50 in assay [1] (setting [5]) and in assay [2] (setting [6]) were 22 nM and 412 nM, respectively.
As to `CCOc1cc(-c2cc(NCCn3c(C)cc4c(C)ccc(F)c43)ncn2)ccc1C(=O)O` [Example 158, 2-ethoxy-4-{6-[2-(7-fluoro-2,4-dimethyl-indol-1-yl)-ethylamino]-pyrimidin-4-yl}-benzoic acid], the IC50 worked out at 39 nM in assay [1] (setting [5]) and 163 nM in assay [2] (setting [6]).
With `CCOc1cc(-c2cc(NCCn3c(C)cc4c(OC)ccc(F)c43)ncn2)sc1C(=O)O` [Example 258, 3-Ethoxy-5-{6-[2-(7-fluoro-4-methoxy-2-methyl-indol-1-yl)-ethylamino]-pyrimidin-4-yl}-thiophene-2-carboxylic acid], the values for the IC50 in assay [1] (setting [5]) and in assay [2] (setting [6]) were 1 nM and 10 nM, respectively.
Taken in the same sequence, the figures for `CCOc1cc(-c2cc(NCCn3c(C)cc4c(OC)ccc(F)c43)ncn2)ccc1C(=O)O` [Example 326, 2-ethoxy-4-{6-[2-(7-fluoro-4-methoxy-2-methyl-indol-1-yl)-ethylamino]-pyrimidin-4-yl}-benzoic acid] were 18 nM and 224 nM.
Regarding `COc1ccc(F)c2c1cc(C)n2CCNc1cc(-c2ccc(-c3csc(O)n3)cc2)ncn1` [Example 798, 4-(4-{6-[2-(7-Fluoro-4-methoxy-2-methyl-indol-1-yl)-ethylamino]-pyrimidin-4-yl}-phenyl)-thiazol-2-ol], the IC50 in assay [1] (setting [3]) was determined as 28 nM; in assay [2] (setting [4]), 123 nM.
Taken in the same sequence, the figures for `COc1ccc(F)c2c1cc(C)n2CCNc1cc(-c2cc(O)c(C(=O)O)s2)ncn1` [Example 799, 5-{6-[2-(7-Fluoro-4-methoxy-2-methyl-indol-1-yl)-ethylamino]-pyrimidin-4-yl}-3-hydroxy-thiophene-2-carboxylic acid] were 21 nM and 59 nM.
Consider `COc1cc(F)cc2c1cc(C)n2CCNc1cc(-c2cc(O)c(C(=O)O)s2)ncn1` [Example 800, 5-{6-[2-(6-Fluoro-4-methoxy-2-methyl-indol-1-yl)-ethylamino]-pyrimidin-4-yl}-3-hydroxy-thiophene-2-carboxylic acid], for which the IC50 in assay [1] (setting [3]) was 12 nM; in assay [2] (setting [4]), 44 nM.
Taken in the same sequence, the figures for `COc1ccc(F)c2c1cc(C#N)n2CCNc1cc(-c2cc(OC(C)C)c(C(=O)O)s2)ncn1` [Example 802, 5-{6-[2-(2-Cyano-7-fluoro-4-methoxy-indol-1-yl)-ethylamino]-pyrimidin-4-yl}-3-isopropoxy-thiophene-2-carboxylic acid] were 7 nM and 1 nM.
Taken in the same sequence, the figures for `CCOc1cc(-c2cc(NCCn3c(C#N)cc4c(OC)ccc(F)c43)ncn2)ccc1-c1nnn[nH]1` [Example 803, 1-(2-{6-[3-Ethoxy-4-(1H-tetrazol-5-yl)-phenyl]-pyrimidin-4-ylamino}-ethyl)-7-fluoro-4-methoxy-1H-indole-2-carbonitrile] were 10 nM and 4 nM.
Taken in the same sequence, the figures for `COc1ccc(F)c2c1cc(C#N)n2CCNc1cc(-c2cc(C(F)(F)F)c(C(=O)O)s2)ncn1` [Example 804, 5-{6-[2-(2-Cyano-7-fluoro-4-methoxy-indol-1-yl)-ethylamino]-pyrimidin-4-yl}-3-trifluoromethyl-thiophene-2-carboxylic acid] were 3 nM and 2 nM.
With `CCOc1cc(-c2cc(NCCn3c(C#N)cc4c(OC)ccc(F)c43)ncn2)sc1C(=O)O` [Example 805, 5-{6-[2-(2-cyano-7-fluoro-4-methoxy-indol-1-yl)-ethylamino]-pyrimidin-4-yl}-3-ethoxy-thiophene-2-carboxylic acid], the results for the IC50 in assay [1] (setting [3]) and in assay [2] (setting [4]) were 4 nM and 5 nM, respectively.
Taken in the same sequence, the figures for `COc1ccc(F)c2c1cc(C#N)n2CCNc1cc(-c2cc(F)c(C(=O)O)s2)ncn1` [Example 806, 5-{6-[2-(2-Cyano-7-fluoro-4-methoxy-indol-1-yl)-ethylamino]-pyrimidin-4-yl}-3-fluoro-thiophene-2-carboxylic acid] were 7 nM and 10 nM.
Taken in the same sequence, the figures for `CCOc1cc(-c2cc(NCCn3c(C#N)cc4c(OC)ccc(F)c43)ncn2)ccc1C(=O)O` [Example 807, 4-{6-[2-(2-Cyano-7-fluoro-4-methoxy-indol-1-yl)-ethylamino]-pyrimidin-4-yl}-2-ethoxy-benzoic acid] were 32 nM and 55 nM.

Values taken from patent publication US12011444B2, “N-substituted indole derivatives as PGE2 receptor modulators” (Idorsia Pharmaceuticals Ltd, priority 2015, dated 2024).
